We go through eleven compounds from ChEMBL document CHEMBL1201862, “PubChem BioAssay data set” (2004).

Molecules are shown by their SMILES.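 How tested: cells in 96-well plates exposed to compound for 48 hours at five concentrations. At the GI50, growth is halved.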 Active and inactive are the calls of the source. Cut-off read from the data, not from the text of the source: active = GI50 up to about 1.1 µM and inactive = higher.

Some test systems named below: A549; CAKI-1; CCRF-CEM; COLO 205; EKVX; HCC 2998; HOP-62; KM12; LOX IMVI; MOLT-4; Malme-3M; NCI-H460; OVCAR-5; SF-295; SK-MEL-2; SK-MEL-5; SK-OV-3; SNB-19; UACC-62; UO-31.
What all share (assay): DTP human tumour cell line panel, 48 h

For `COc1ccc(Cc2nc3cc(C(F)(F)F)ccc3n2C[C@@H]2CCCN3CCCCC23)cc1` (stereo partly drawn), the GI50 (usually the concentration giving 50% growth inhibition) in the assay with A549 is 9.02 µM (inactive); in the assay with CAKI-1 it was 12.6 µM (inactive); in the assay with CCRF-CEM, 11.1 µM (inactive); in the assay on COLO 205, 5.36 µM (inactive); in the assay on EKVX, 13.6 µM (inactive); in the assay on HCC 2998 it was 2 µM (inactive). Also, the GI50 in the assay on HOP-62 was 8.73 µM (inactive); with KM12, 13.5 µM (inactive); with LOX IMVI, 10.5 µM (inactive); with MOLT-4, 6.84 µM (inactive); in the assay with Malme-3M it was 3.18 µM (inactive); in the assay on NCI-H460, 13.6 µM (inactive). Besides, the GI50 is 13.7 µM (inactive) in the assay on OVCAR-5; 5.82 µM (inactive) in the assay with SF-295; 15.6 µM (inactive) in the assay with SK-MEL-2; 6.92 µM (inactive) in the assay on SK-MEL-5; 15.1 µM (inactive) in the assay on SK-OV-3; 13.4 µM (inactive) with SNB-19. For the same compound, in the assay with UACC-62, the GI50 was 5.69 µM (inactive).

For `CCOC(=O)C(=O)Nc1nc2ccc(C)cc2s1`, the GI50 with A549 was 32.4 µM (inactive); in the assay on CAKI-1 it was > 100 µM (inactive); with CCRF-CEM, > 100 µM (inactive); with COLO 205, > 100 µM (inactive); in the assay with EKVX, > 100 µM (inactive); in the assay on HCC 2998, > 100 µM (inactive). Also, the GI50 in the assay with HOP-62, in the assay with KM12, in the assay on MOLT-4, in the assay on Malme-3M, in the assay with NCI-H460 and with OVCAR-5 was > 100 µM (inactive) in each case. The GI50 in the assay on SK-MEL-2, with SK-MEL-5, with SK-OV-3, with SNB-19, with UACC-62 and in the assay on UO-31 was > 100 µM (inactive) in each case.

With `Cc1ccc(Cl)c2c1NC(=O)/C2=N\Nc1ccccc1[N+](=O)[O-]`, the GI50 with A549 is 83 µM (inactive); in the assay on CAKI-1, > 100 µM (inactive); with CCRF-CEM it was 24.5 µM (inactive); in the assay with COLO 205 it was 46.3 µM (inactive); in the assay on EKVX, 40.2 µM (inactive); with HCC 2998, 36.9 µM (inactive). The GI50 is 56.1 µM (inactive) in the assay with HOP-62; 23.8 µM (inactive) with KM12; 25.6 µM (inactive) in the assay with LOX IMVI; 37.3 µM (inactive) with MOLT-4; 42.7 µM (inactive) in the assay with Malme-3M; 30.4 µM (inactive) in the assay on NCI-H460. In addition, the GI50 in the assay with OVCAR-5 is > 100 µM (inactive); in the assay with SF-295, 24.1 µM (inactive); in the assay with SK-MEL-2, > 100 µM (inactive); in the assay with SK-OV-3 it was > 100 µM (inactive); with SNB-19, 68.4 µM (inactive); in the assay on UACC-62, 31.4 µM (inactive). Further, in the assay with UO-31, the GI50 was 34.8 µM (inactive).

For the compound `CC(=O)OCc1c(O)nc2c(c1O)-c1ccccc1CC2`, the GI50 in the assay with A549 was 134 µM (inactive); with CAKI-1, 59.2 µM (inactive); in the assay on CCRF-CEM it was 67.1 µM (inactive); in the assay with COLO 205 it was 57 µM (inactive); in the assay with EKVX, 125 µM (inactive); in the assay with HCC 2998, 80.9 µM (inactive). Besides, the GI50 with HOP-62 was 131 µM (inactive); with KM12, 53.2 µM (inactive); in the assay with LOX IMVI, 61.4 µM (inactive); with MOLT-4 it was 97.5 µM (inactive); in the assay with Malme-3M it was > 35 µM (inactive); in the assay on NCI-H460, 77.8 µM (inactive). Also, the GI50 was 74.6 µM (inactive) in the assay on SF-295; > 35 µM (inactive) in the assay with SK-MEL-2; 76.6 µM (inactive) with SK-MEL-5; 194 µM (inactive) with SK-OV-3; > 350 µM (inactive) in the assay with SNB-19; 50.5 µM (inactive) in the assay with UACC-62.

Regarding `COc1ccc(C(Cc2cc(OC)c(OC)c(OC)c2)C(=O)O)cc1` (stereo not drawn), the GI50 is 60 µM (inactive) in the assay on A549; 64.1 µM (inactive) in the assay with CAKI-1; 46 µM (inactive) in the assay on CCRF-CEM; > 100 µM (inactive) in the assay with COLO 205; 63 µM (inactive) in the assay with EKVX; > 100 µM (inactive) in the assay on HCC 2998. The GI50 in the assay with HOP-62 is > 100 µM (inactive); in the assay with KM12 it was 41.8 µM (inactive); in the assay on LOX IMVI it was > 100 µM (inactive); in the assay on Malme-3M, 74 µM (inactive); with NCI-H460, 45.7 µM (inactive); with OVCAR-5, > 100 µM (inactive). Further, the GI50 in the assay on SF-295 is 26.1 µM (inactive); in the assay with SK-MEL-2, 52 µM (inactive); with SK-MEL-5, 25.9 µM (inactive); in the assay on SK-OV-3, 52.6 µM (inactive); in the assay with SNB-19, 62.7 µM (inactive); in the assay with UACC-62, 31.2 µM (inactive). In addition, the GI50 with UO-31 is 72.3 µM (inactive).

With `CC(=O)Oc1ccccc1C(=O)Nc1ncc([N+](=O)[O-])s1` [NITAZOXANIDE], the GI50 with A549 was 22 µM (inactive); in the assay with CAKI-1 it was 26.5 µM (inactive); in the assay on COLO 205 it was 12.7 µM (inactive); in the assay with EKVX it was 21 µM (inactive); in the assay on HCC 2998, 13 µM (inactive); in the assay with HOP-62, 22.3 µM (inactive). Besides, the GI50 in the assay with KM12 was 22 µM (inactive); with LOX IMVI, 21.8 µM (inactive); in the assay on MOLT-4 it was > 100 µM (inactive); with Malme-3M, 11.1 µM (inactive); with NCI-H460, 17.1 µM (inactive); in the assay on OVCAR-5 it was 29.9 µM (inactive). In addition, the GI50 with SF-295 was 9.91 µM (inactive); in the assay with SK-MEL-2, 16.3 µM (inactive); in the assay on SK-MEL-5 it was 11.9 µM (inactive); in the assay with SK-OV-3 it was 14.7 µM (inactive); with SNB-19, 17.9 µM (inactive); in the assay with UACC-62, 4.33 µM (inactive). Moreover, in the assay with UO-31, the GI50 was 26 µM (inactive).

For `O=c1[nH]nc(Cc2ccc(Cl)cc2)n1CCO`, the GI50 with A549, in the assay with CAKI-1, with COLO 205, in the assay with EKVX, with HCC 2998 and with KM12 was > 100 µM (inactive) in each case. The GI50 in the assay on LOX IMVI, in the assay with MOLT-4, in the assay on Malme-3M, in the assay on NCI-H460, in the assay with OVCAR-5 and with SF-295 was > 100 µM (inactive) throughout. For the same compound, the GI50 with SK-MEL-2, in the assay with SK-MEL-5, in the assay on SK-OV-3, in the assay with SNB-19, in the assay on UACC-62 and in the assay with UO-31 was > 100 µM (inactive) throughout.

Regarding `O=c1[nH]c(=O)n(C2OC(CO)C(O)C(F)C2O)cc1F` (stereo not drawn), the GI50 in the assay on A549, with CAKI-1, with CCRF-CEM, with COLO 205, in the assay on HCC 2998 and with LOX IMVI was > 100 µM (inactive) each time. The GI50 in the assay on MOLT-4 was 0.0803 µM (active); in the assay on Malme-3M, > 100 µM (inactive); with NCI-H460, > 100 µM (inactive); in the assay with OVCAR-5, > 100 µM (inactive); in the assay with SF-295, > 100 µM (inactive); in the assay with SK-MEL-2, > 100 µM (inactive). Moreover, the GI50 with SK-MEL-5, in the assay on SK-OV-3, in the assay on SNB-19, in the assay with UACC-62 and with UO-31 was > 100 µM (inactive) each time.

Turning to `COc1cc(O)c(/C=N/N=C(\N)NO)c(OC)c1`, the GI50 in the assay with A549 is > 10 µM (inactive); in the assay on CAKI-1, > 10 µM (inactive); in the assay on CCRF-CEM it was 5.57 µM (inactive); with COLO 205 it was > 10 µM (inactive); in the assay on EKVX, > 10 µM (inactive); in the assay with HCC 2998, > 10 µM (inactive). The GI50 in the assay on HOP-62 is 9.93 µM (inactive); with KM12, 8.18 µM (inactive); in the assay with LOX IMVI, 7.6 µM (inactive); with Malme-3M, > 10 µM (inactive); with NCI-H460 it was 4.08 µM (inactive); with OVCAR-5 it was > 10 µM (inactive). Further, the GI50 was 4.92 µM (inactive) in the assay with SF-295; > 10 µM (inactive) with SK-MEL-2; > 10 µM (inactive) with SK-MEL-5; > 10 µM (inactive) in the assay on SK-OV-3; > 10 µM (inactive) with SNB-19; 9.71 µM (inactive) with UACC-62. For the same compound, in the assay with UO-31, the GI50 was > 10 µM (inactive).

Regarding `N#CCc1n[nH]c2nc(SCc3ccccc3)nc(N3CCCCC3)c12`, the GI50 is 19.3 µM (inactive) in the assay on A549; 19.9 µM (inactive) in the assay with CAKI-1; 17.3 µM (inactive) in the assay with CCRF-CEM; 17.9 µM (inactive) in the assay with COLO 205; 20.5 µM (inactive) with EKVX; 17.5 µM (inactive) with HCC 2998. Moreover, the GI50 in the assay on HOP-62 is 20.4 µM (inactive); in the assay on KM12, 17.7 µM (inactive); with LOX IMVI, 21 µM (inactive); in the assay with MOLT-4, 20.6 µM (inactive); in the assay with Malme-3M, 24.5 µM (inactive); in the assay with NCI-H460 it was 19.6 µM (inactive). For the same compound, the GI50 in the assay with OVCAR-5 is 20.2 µM (inactive); with SF-295, 19.6 µM (inactive); in the assay on SK-MEL-2, 20.7 µM (inactive); in the assay on SK-MEL-5, 18.5 µM (inactive); in the assay on SK-OV-3, 26.4 µM (inactive); with SNB-19, 18.9 µM (inactive). For the same compound, the GI50 in the assay with UO-31 is 20.1 µM (inactive).

`O=C(O)C1CCCCN1C(=O)Cc1c[nH]c2ccccc12` (stereo not drawn): the GI50 in the assay with A549, in the assay with CAKI-1, with CCRF-CEM, in the assay with COLO 205, with EKVX and with HCC 2998 was > 100 µM (inactive) throughout. Besides, the GI50 with HOP-62, in the assay with KM12, with LOX IMVI, with MOLT-4, in the assay on Malme-3M and with NCI-H460 was > 100 µM (inactive) each time. Further, the GI50 in the assay on OVCAR-5, in the assay with SF-295, in the assay on SK-MEL-2, with SK-OV-3, in the assay with SNB-19 and with UACC-62 was > 100 µM (inactive) in each case.
